# Source: patent publication US6608185B1, “Substances KF-1040T4A,KF-1040T4B, KF-1040T5A, and KF-1040T5B, and process for producing same” (Kitasato Institute, priority 2002, dated 2003)
# Tests used:
# [1] = molecular target: diacylglycerol acyltransferase; experiment: Inhibitory action against rat-originated diacylglycerol acyltransferase (rat liver microsomal fraction); assay type: biochemical; settings: [1-14C]palmitoyl-CoA, 23° C., 15 minutes
# Method: (1) Inhibitory Action against Rat-originated Diacylglycerol Acyltransferase
# The activity of diacylglycerol acyltransferase was determined in accordance with the method of Mayorek and BarTana, [J. Biol. Chem., 260, 6528-6532 (1985)] with partial modification.
# Namely, a microsomal fraction prepared from rat liver was used as the enzyme source. To a 175 mM Tris-HCl buffer (pH 8.0) containing 8 mM of MgCl2, 1 mg/ml of bovine serum albumin and 2.5 mM of diisopropyl fluorophosphate, there were added 0.75 mM of dioleoylglycerol and 30 μM of [1^−14C] palmitoyl-CoA (0.02 μCi) and the total volume was adjusted to 200 μl, whereupon the enzymatic reaction mixture was incubated at 23° C. for 15 minutes. The total lipids were extracted with chloroform/methanol (1/2) mixture and each lipid was separated by a TLC (with Kiselgel GF254 and a developing solvent of petroleum ether/diethyl ether/acetic acid of 80/20/1), followed by measurement of the radioactivity of the triacylglycerol fraction using RI RADIO-SCANNER (manufactured by AMBIS System Inc., U.S.A.) to determine the diacylglycerol acyltransferase activity.
# [2] = test system: Raji cell originating from human Burkitt lymphoma (triacylglycerol synthesis); experiment: Inhibitory action against synthesis of triacylglycerol in human-originated Raji cells; assay type: cell-based; settings: [1-14C]oleic acid, 37° C., 30 minutes; for IC50: Homo sapiens, 0.5 h, read-out: drug concentration corresponding to 50% inhibition of triacylglycerol synthesis
# Method: (2) Inhibitory Action against Synthesis of Triacylglycerol in Human-originated Cells (Raji Cell originating from Human Burkitt Lymphoma)
# The assessment of the influence of the substances on triacylglycerol synthesis was performed in accordance with the method of Tomoda et al. [J. Biol. Chem., 266, 4214-4219 (1991)] using human-originated cells (Raji cell originated from human Burkitt lymphoma). A Raji cell dispersion of 2.7×10^6 cells per milliliter containing […] [1^−14C] oleic acid (0.02 μCi) was filled up to a total volume 200 μl, whereupon the reaction proceeded at 37° C. for 30 minutes. The total lipids were extracted with a chloroform/methanol (2/1) mixture. Then, the activity was measured in the same manner as in the “inhibitory action against rat-originated diacylglycerol-acyltransferase”.
# The calculation of the drug concentration corresponding to 50% inhibition of triacylglycerol synthesis gives a value of 10 μg/ml for all the substances KF-1040T4A, KF-1040T4B, KF-1040T5A and KF-1040T5B.
# [3] = molecular target: T1, acid sphingomyelinase (Homo sapiens, UniProt P17405); experiment: Influence on human placenta-originated acid sphingomyelinase; assay type: biochemical; settings: human placenta enzyme (Sigma), pH 5.0, 37° C., 30 minutes; read-out: concentration corresponding to 50% inhibition of acid sphingomyelinase (converted)
# T1 construct: an acid sphingomyelinase originating from human placenta (a product of Sigma Co.) was used as the enzyme source; purchased Sigma Co; host or cells: human placenta (tissue-derived enzyme)
# T1 sequence (P17405 47-631): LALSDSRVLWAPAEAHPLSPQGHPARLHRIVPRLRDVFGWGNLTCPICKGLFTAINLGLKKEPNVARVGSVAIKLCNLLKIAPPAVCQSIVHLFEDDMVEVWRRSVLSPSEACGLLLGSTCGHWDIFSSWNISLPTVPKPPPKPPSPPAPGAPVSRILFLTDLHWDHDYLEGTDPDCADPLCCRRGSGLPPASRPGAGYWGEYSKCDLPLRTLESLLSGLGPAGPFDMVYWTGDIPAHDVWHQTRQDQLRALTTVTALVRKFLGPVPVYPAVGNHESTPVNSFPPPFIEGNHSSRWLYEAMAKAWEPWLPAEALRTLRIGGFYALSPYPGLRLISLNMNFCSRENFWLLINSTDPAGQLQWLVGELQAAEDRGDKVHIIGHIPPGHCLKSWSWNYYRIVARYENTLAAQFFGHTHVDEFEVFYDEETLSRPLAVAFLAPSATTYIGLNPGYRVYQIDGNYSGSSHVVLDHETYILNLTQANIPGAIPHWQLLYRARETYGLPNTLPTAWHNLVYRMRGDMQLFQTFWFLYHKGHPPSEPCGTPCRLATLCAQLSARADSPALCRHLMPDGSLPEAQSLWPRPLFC
# Method: (4) Influence on Human Placenta-originated Acid Sphingomyelinase
# The assessment of the influence of the substances on human placenta-originated acidic sphingomyelinase was performed in accordance with the method of Jones et al. [Biochem. Journal, 195, 373-382 (1981)] with partial modification.
# Thus, an acid sphingomyelinase originating from human placenta (a product of Sigma Co.) was used as the enzyme source and thereto were added 250 mM of sodium acetate buffer solution (pH 5.0), 0.1% of NP-40 (a product of Sigma Co.), and 25 μM [N-methyl-^3H] sphingomyelin (0.006 μCi), and the mixture was filled up to a total volume of 50 μl. After reaction at 37° C. for 30 minutes, 200 μl of chloroform/methanol mixture (1/2 in volume ratio) was added thereto to separate the reaction product [^3H] phosphocholine from the starting material [^3H] sphingomyelin. The upper layer was taken up into a […]. The amount of [^3H] phosphocholine was quantitatively determined by a liquid scintillation counter to estimate the acid sphingomyelinase activity.
# [4] = Solubility in solvents; assay type: physicochemical
Compound,drug concentration corresponding to 50% inhibition of diacylglycerol acyltransferase [1],IC50 [2],IC50 [3],"Solubility in solvents: methanol, benzene, chloroform and ethyl acetate [4]",Solubility in solvents: water and hexane [4],drug concentration corresponding to 50% inhibition of triacylglycerol synthesis [2]
"CCC(C)CC(C)CC(C)C(OC1OC(CO)C(O)C(O)C1O)C(C)/C=C(\C)C(O)C(C)/C=C(\C)C(O)C(C)/C=C(\C)C(=O)OCC(O)C(O)C(O)CO (single isomer, unassigned) [KF-1040T4A]",13.2 µg/mL,10 µg/mL,300 µM,soluble,slightly soluble,
"CCC(C)CC(C)CC(C)C(OC1OC(COC(C)=O)C(O)C(O)C1O)C(C)/C=C(\C)C(O)C(C)/C=C(\C)C(O)C(C)/C=C(\C)C(=O)OCC(O)C(O)C(O)CO (single isomer, unassigned) [KF-1040T5B]",14.7 µg/mL,,59.8 µM,soluble,slightly soluble,10 µg/mL
"CCC(C)CC(C)CC(C)C(OC1OC(CO)C(O)C(O)C1O)C(C)/C=C(\C)C(O)C(C)/C=C(\C)C(O)C(C)/C=C(\C)C(=O)OCC(O)C(O)C(O)CO (single isomer, unassigned) [KF-1040T4B]",11.6 µg/mL,,90.1 µM,soluble,slightly soluble,10 µg/mL
"CCC(C)CC(C)CC(C)C(OC1OC(COC(C)=O)C(O)C(O)C1O)C(C)/C=C(\C)C(O)C(C)/C=C(\C)C(O)C(C)/C=C(\C)C(=O)OCC(O)C(O)C(O)CO (single isomer, unassigned) [KF-1040T5A]",18.0 µg/mL,10 µg/mL,239 µM,soluble,slightly soluble,
